The values below come from article PMC6889535, “Validation of Plasmodium falciparum dUTPase as the target of 5′-tritylated deoxyuridine analogues with anti-malarial activity” (Malaria Journal, 2019).

A value given as a limit tells only on which side of the number the result lay.

One assay addresses T1, HsdUTPase (Homo sapiens, UniProt P33316).
T1 construct: made in house
T1 sequence (P33316 1-164 isoform P33316-2): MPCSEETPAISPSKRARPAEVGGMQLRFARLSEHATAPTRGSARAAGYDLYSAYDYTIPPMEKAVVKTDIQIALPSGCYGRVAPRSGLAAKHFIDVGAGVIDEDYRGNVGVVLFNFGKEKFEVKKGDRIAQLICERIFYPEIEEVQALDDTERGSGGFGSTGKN
The experiment in a line: Inhibition of human dUTPase (Ki). It counts as biochemical. Particulars: average of three independent experiments ± standard errors. The text has this:
Table 1 Ki values for Plasmodium and human dUTPases and IC50s for intraerythrocytic stages of Plasmodium falciparum | column: Ki HsdUTPase

Assay [1] concerns dTTP and dUTP pools in Plasmodium cultures. The experiment in a line: Intracellular dTTP and dUTP levels by modified DNA polymerase assay. Particulars: schizont stage, 20 h of treatment, 1× and 3× the IC50; effect at high concentrations. It counts as cell-based, Plasmodium falciparum. How it is done: The effect of different dUTPase inhibitors on dUTP and dTTP levels from P. falciparum cells was measured using a modified DNA polymerase assay. The template sequence employed was the oligonucleotide 5′-[…]-3′ and as primer sequence the oligonucleotide 5′-CCGCCTCCACCGCC-3′ was used. Saponin-isolated parasite pellets (5 × 10^8 parasites per sample) were repeatedly washed in PBS and frozen at − 80 °C. Frozen pellets were extracted with 200 μl of cold methanol/water (1:1, v/v) vigorously by vortexing, freeze-thawed twice and centrifuged. Supernatants were collected and pellets were re-extracted with the same volume of methanol/water as previously mentioned and newly centrifuged. The combined supernatants were dried under vacuum. The residues were dissolved in 40 μl either of dUTPase buffer (34 mM Tris–HCl pH 7.8, 5 mM MgCl2) or dUTPase buffer plus 30 ng of HsdUTPase and incubated for 20 min at 37 °C. To stop the reaction, 60 μl of 100% methanol were added and the samples were incubated for 1 h at − 20 °C, followed by centrifugation for 20 min at 16,000×g. The supernatants were again dried under vacuum and the DNA polymerase assay used was modified from that of Horowitz et al.. The DNA polymerase I buffer contained 34 mM Tris–HCl pH 7.8, and 50 mM MgCl2. After incubation with DNA polymerase I, 30 μl of each sample were incubated for 30 min at 4 °C with 470 μl of DNA polymerase I buffer containing 10% (v/v) trichloroacetic acid to precipitate the DNA. The solution was blotted onto a glass microfibre filter GF/C (Whatman) and each filter was washed under vacuum with 30 ml of a solution of 5% (v/v) trichloroacetic acid and 3 ml of ethanol, dried and the radioactivity was counted using a LS 6500 Multi-Purpose Scintillation Counter (Beckman Coulter).
The levels of intracellular dTTP and dUTP were measured using the DNA polymerase based assay in Plasmodium cultures incubated with compounds 3 and 4. Parasites for dUTP and dTTP measurements were obtained from highly synchronized cultures in schizont stage after 20 h of treatment with concentrations of compound that corresponded with 1× and 3× the IC50 concentration.

For assay [2], the system named is Plasmodium falciparum lines overexpressing human dUTPase (HsdUTPase OE). The experiment in a line: IC50 shift in P. falciparum line overexpressing human dUTPase (SYBR green assay). Particulars: HsdUTPase overexpressing line vs parental line 3D7. The class given is cell-based. As to the method: (§1) In vitro inhibitory activity against the erythrocytic stages of P. falciparum of overexpressing mutants was determined by using the SYBR green assay and the ^3H-hypoxanthine incorporation assay was used for IC50 determination as previously described. Plasmodium falciparum 3D7 was cultured using standard methods, and synchronized using 5% sorbitol as previously described. Compounds were dissolved in DMSO and added at different concentrations (8–500 ng/ml) to 48 h post-synchronization parasites. […] Chloroquine dissolved in water was used as standard drug. Experiments were carried out at least twice independently and the different concentrations were tested in duplicate. IC50 values were calculated using a four-parameter logistic regression model using data obtained from two or three independent experiments as indicated.
(§2) Subsequently, the IC50 for each cell line with each compound and the fold change relative to the 3D7 IC50 was calculated (Fig. 3a). […] The IC50 for chloroquine as a reference compound was also determined in overexpressing mutants.

The test system of assay [3] is Plasmodium falciparum lines overexpressing PfdUTPase (PfdUTPase OE). The experiment in a line: IC50 shift in P. falciparum line overexpressing PfdUTPase (SYBR green assay). The class given is cell-based. Particulars: PfdUTPase overexpressing line vs parental line 3D7. As to the method: as §1, §2
A further assay has as its target T2, PfdUTPase (Plasmodium falciparum, UniProt Q8II92).
T2 construct: made in house
T2 sequence (Q8II92 1-173): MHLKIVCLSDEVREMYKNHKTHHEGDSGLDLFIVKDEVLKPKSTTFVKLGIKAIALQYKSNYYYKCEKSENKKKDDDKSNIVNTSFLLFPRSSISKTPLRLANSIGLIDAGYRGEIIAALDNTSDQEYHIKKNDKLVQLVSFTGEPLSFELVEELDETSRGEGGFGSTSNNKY
The experiment in a line: Inhibition of Plasmodium dUTPase (Ki). The class given is biochemical. Particulars: for Ki: average of three independent experiments ± standard errors.

Assay [4] has as its system Plasmodium falciparum 3D7. The experiment in a line: In vitro inhibitory activity against erythrocytic stages of P. falciparum (3H-hypoxanthine incorporation assay). It counts as cell-based. The conditions noted are these: intraerythrocytic stages of Plasmodium falciparum; average of three independent experiments ± standard errors; read-out: IC50 Pf3D7. As to the method:
as §1

As usually defined, the Ki is a measure of affinity in units of concentration, obtained from inhibition or displacement. Read a high Ki as a looser hold on the target. A word on the IC50: it is the concentration at which inhibition is half-maximal. `CCOC(=O)c1ccc(NC(=O)NCC(CCn2ccc(=O)[nH]c2=O)CNC(c2ccccc2)(c2ccccc2)c2ccccc2)cc1` (centres unmarked) [Compound 4, Ethyl 4-(3-(4-(2,4-dioxo-3,4-dihydropyrimin-1(2H)-yl)-2-((tritylamino)methyl)butyl)uredio)benzoate]: the Ki at HsdUTPase was more than 100000 nM; on PfdUTPase it was 610 ± 70 nM. Besides, in assay [1], the dTTP pool result is given as “significant decrease”. Further, the dUTP pool entry in assay [1] is on record as “increase”. Besides, the “Fold change in IC50 relative to the 3D7 IC50” value in assay [2] is reported as 2.5 fold; in assay [3], 4 fold. In addition, the “Activity against the enzyme relative to compound 3” value at PfdUTPase (PfdUTPase, compared with compound 3) is “eightfold less active”. Moreover, in assay [4], the IC50 is 150 ± 30 nM.
“3- N-(4-(carboethoxy)butylurea)-5-tritylamino-2,3-dideoxy-β-D-xylofuranosyluracil [Compound 1]”: the results for the Ki at HsdUTPase and on PfdUTPase were more than 100000 nM and 4730 ± 160 nM, respectively. In addition, in assay [4], the IC50 worked out at 40 ± 10 nM.
For `CCN(CC)CCCC(C)Nc1ccnc2cc(Cl)ccc12` (centres unmarked) [chloroquine, Chloroquine, reference compound], the “Fold change in IC50 relative to the 3D7 IC50” value in assay [2] and in assay [3] was “No significant effects” throughout.
As to `O=C(Nc1ccc(C(=O)O)cc1)O[C@H]1C[C@H](n2ccc(=O)[nH]c2=O)O[C@@H]1CNC(c1ccccc1)(c1ccccc1)c1ccccc1` [Compound 3, 3’-O-(4-(carboxy)phenylurethane)-5’-N-tritylamino-2’,5’-dideoxyuridine], the Ki is more than 100000 nM on HsdUTPase and 79 ± 22 nM at PfdUTPase. Besides, in assay [1], the dTTP pool result is given as “significant decrease”. Moreover, in assay [1], the dUTP pool entry is “increase”. For the same compound, the “Fold change in IC50 relative to the 3D7 IC50” value is 2.3 fold in assay [2] and 3.8 fold in assay [3]. Besides, the IC50 in assay [4] turned out to be 120 ± 50 nM.
Take `CCOC(=O)CCCNC(=O)NCC(CCn1ccc(=O)[nH]c1=O)CNC(c1ccccc1)(c1ccccc1)c1ccccc1` (centres unmarked) [Compound 2, Ethyl 4-(3-(4-(2,4-dioxo-3,4-dihydropyrimin-1(2H)-yl)-2-((tritylamino)methyl)butyl)uredio)butanoate]: the results for the Ki at HsdUTPase and on PfdUTPase were 12200 ± 6910 nM and 560 ± 80 nM, respectively. Further, the IC50 in assay [4] came to 60 ± 10 nM.
